Measured values published in EP0112332B1, “VITAMIN D GLYCOSIDES” (THE GENERAL HOSPITAL CORPORATION, priority 1982, dated 1984).

Experiments:
[1] = in vivo, dosed parenterally and daily; cited from earlier work
[2] = tested on: Intestinal calcium transport; experiment: Intestinal calcium transport by the everted gut sac technique after oral dosing of vitamin D deficient rats; type: in vivo; conditions: for I/O (inside Ca⁴⁵/outside Ca⁴⁵) ± S.D.: 24 hours later, vehicle 1.6 ± 0.3; for stimulating intestinal calcium absorption (result in words): summary of the table data, oral dosing of rats
Procedure: (§1) The vitamin D₃, 3β-glucoside vitamin D₃, 3α-glucoside and the vitamin D₃, 3β glucoside acetate were tested for biological activity. Male weanling rats from Holtzmann Company, Madison, Wisconsin, U.S.A., were fed a vitamin D deficient diet that was adequate in phosphorus and low in calcium (0.02%) for 3-1/2 weeks. Groups of five animals received orally either 4 µg, 1 µg, 0.5 µg, 0.25 µg of Vitamin D₃ -3β- glucoside, 1 µg Vitamin D₃ -3α- glucoside or 2 µg Vitamin D₃ -3β- glucoside acetate in 50 µl of 95% ethanol or vehicle alone. 24 hours later the animals were sacrificed and the small intestine and blood were collected. Intestinal calcium transport studies were performed by the everted gut sac technique, and blood was used for serum calcium determinations.

[3] = Serum calcium determination (bone calcium mobilization) after oral dosing of vitamin D deficient rats on low calcium diet; type: in vivo
Procedure: as §1

Structure (SMILES) | times more potent than D₃ [1] | times more potent than the monohydroxy form of the vitamin [1] | I/O (inside Ca⁴⁵/outside Ca⁴⁵) ± S.D. ([2]; 2 µg orally in 50 µl of 95% ethanol) | stimulating intestinal calcium absorption (result in words) [2] | I/O (inside Ca⁴⁵/outside Ca⁴⁵) ± S.D. ([2]; 0.25 µg orally in 50 µl of 95% ethanol) | I/O (inside Ca⁴⁵/outside Ca⁴⁵) ± S.D. ([2]; 0.5 µg orally in 50 µl of 95% ethanol) | I/O (inside Ca⁴⁵/outside Ca⁴⁵) ± S.D. ([2]; 1 µg orally in 50 µl of 95% ethanol) | I/O (inside Ca⁴⁵/outside Ca⁴⁵) ± S.D. ([2]; 4 µg orally in 50 µl of 95% ethanol, male weanling rats, vitamin D deficient low calcium diet) | Serum Calcium ± S.D. ([3]; 4 µg orally in 50 µl of 95% ethanol, 24 hours later, vehicle 4.3 ± 0.2) | stimulating bone calcium mobilization (result in words) ([3]; summary of the table data, oral dosing of rats)
C=C1/C(=C\C=C2/CCC[C@]3(C)[C@@H]([C@H](C)CCCC(C)(C)O)CC[C@@H]23)C[C@@H](O)C[C@@H]1O [1α, 25-(OH)₂D₃] | 5-10 times | 2-5 times | – | – | – | – | – | – | – | –
C=C1CC[C@H](O[C@@H]2O[C@H](COC(C)=O)[C@@H](OC(C)=O)[C@H](OC(C)=O)[C@H]2OC(C)=O)C/C1=C/C=C1\CCC[C@]2(C)[C@@H]([C@H](C)CCCC(C)C)CC[C@@H]12 [Vitamin D₃ 3β- glucoside acetate, 9,10-secocholesta-5,7,10(19)-trien-3β-yl-2',3',4',6'-tetra-O-acetyl -β-D-glucopyranoside] | – | – | 1.7 ± 0.2 | appears inactive | – | – | – | – | – | –
C=C1CC[C@H](O[C@@H]2O[C@H](CO)[C@@H](O)[C@H](O)[C@H]2O)C/C1=C/C=C1\CCC[C@]2(C)[C@@H]([C@H](C)CCCC(C)C)CC[C@@H]12 [Vitamin D₃ 3β- glucoside, 9,10-secocholesta-5,7,10(19)triene-3β-yl -β-D-glucopyranoside] | – | – | – | capable of stimulating intestinal calcium absorption | 2.0 ± 0.2 | 2.5 ± 0.2 | 3.6 ± 0.3 | 3.9 ± 0.2 | 5.3 ± 0.2 | capable of stimulating
